Experimental data reported in article PMC8658889, “Seriniquinones as Therapeutic Leads for Treatment of BRAF and NRAS Mutant Melanomas” (Molecules, 2021).

Columns and labels:
501mel = assay: MTT cytotoxicity assay; type: cell-based, Human; settings: for IC50: Homo sapiens, 501mel, 72 h treatment, MTT
Text: (§1) Human cell lines were used throughout this program. SK-MEL-19 (melanoma BRAF^V600E, NRAS^WT), SK-MEL-28 (melanoma BRAF^V600E, NRAS^WT), SK-MEL-147 (melanoma BRAF^WT, NRAS^Q61R), MRC-5 (fibroblasts), and primary fibroblast (FDH) were kindly provided by Professor Glaucia Santelli (University of São Paulo, Brazil). MCF7 (breast adenocarcinoma, ATCC HTB-22), and HCT-116 (colorectal carcinoma, ATCC 247) cells were obtained from American Type Culture Collection (ATCC) and deposited in the Cell Bank of Rio de Janeiro, Brazil. WM293A (metastatic melanoma BRAF^V600D, NRAS^WT), 501mel (metastatic melanoma BRAF^V600E; NRAS^G12D), and MM200 (melanoma BRAF^V600E, NRAS^WT) were kindly provided by Professor Sharon Prince, University of Cape Town, South Africa. All human melanoma and breast cell lines were cultivated with Dulbecco’s Modified Eagle Medium: Nutrient Mixture F-12 (Thermo Fisher Scientific, San Jose, CA, USA). MM200 and HCT-116 were maintained with Roswell Park Memorial Institute (RPMI) medium (Thermo Fisher Scientific, San Jose, CA, USA). Unless stated otherwise, media was supplemented with 10% fetal bovine serum (FBS) and 1% penicillin-streptomycin (Thermo Fisher Scientific, San Jose, CA, USA). Cells were incubated with 5% CO2 at 37 °C. When required, cells were detached from flask using trypsin-EDTA 0.05% (Thermo Fisher Scientific, San Jose, CA, USA).
(§2) Cytotoxic activity was evaluated by the transformation of 3-(4,5-dimethylthiazol-2-yl)-2,5-diphenyltetrazolium bromide (MTT; Thermo Fisher Scientific, San Jose, CA, USA) into formazan by viable cells. Cells were plated in a 96-well plate (1 × 10^4 cells/well) and, 24 h later, exposed to serial dilutions of the test compounds (from 0.00032 to 5.0 µM) for 24, 48, and 72 h. For each analysis, negative controls received 0.5% DMSO and positive control was delivered by doxorubicin (DOX; 0.05 to 10.0 µM). At the end of the incubation periods, the medium was replaced with fresh medium containing 0.5 mg/mL of MTT and supernatant was removed 3 h later. The plates were dried at 50 °C for 30 min and formazan was solubilized in DMSO (150 µL/well) for the absorbance measure at 570 nm on a plate reader (Thermo Fisher Scientific, San Jose, CA, USA). IC50 values (half-maximal inhibitory concentration) along with 95% CI (confidence intervals) were calculated by non-linear regression using GraphPad Prism 8.0 software (GraphPad Software, Inc., San Diego, CA, USA).

FDH = assay: MTT cytotoxicity assay; type: cell-based, Human; settings: Homo sapiens, Fibroblast, 72 h, FDH primary fibroblasts, 72 h treatment
Text: as §1, §2

HCT-116 = assay: MTT cytotoxicity assay; type: cell-based, Human; settings: for IC50: Homo sapiens, HCT-116, 72 h treatment, MTT
Text: as §1, §2

MCF7 = assay: MTT cytotoxicity assay; type: cell-based, Human; settings: for IC50: Homo sapiens, MCF7, 72 h treatment, MTT
Text: as §1, §2

MM200 = assay: MTT cytotoxicity assay; type: cell-based, Human; settings: for IC50: Homo sapiens, MM200, 72 h treatment, MTT
Text: as §1, §2

SK-MEL-147 = assay: MTT cytotoxicity assay; type: cell-based, Human; settings: for IC50: Homo sapiens
Text: as §1, §2

SK-MEL-19 = assay: MTT cytotoxicity assay; type: cell-based, Human; settings: for IC50: Homo sapiens, SK-MEL19, SK-MEL-19, 72 h treatment, MTT
Text: as §1, §2

SK-MEL-28 = assay: MTT cytotoxicity assay; type: cell-based, Human; settings: for IC50: Homo sapiens
Text: as §1, §2

WM293A = assay: MTT cytotoxicity assay; type: cell-based, Human; settings: for IC50: Homo sapiens, WM293A, 72 h treatment, MTT
Text: as §1, §2

MRC-5 = assay: MTT cytotoxicity assay; settings: Homo sapiens, MRC5, 72 h
melanoma cells = assay: MTT cytotoxicity assay, melanoma panel; type: cell-based, Human; settings: SK-Mel cells versus non-tumor cell lines
Text: as §1, §2

[1] = 501mel versus FDH, 72-h IC50 ratio
[2] = 501mel versus MRC-5, 72-h IC50 ratio
[3] = HCT-116 versus FDH, 72-h IC50 ratio
[4] = HCT-116 versus MRC-5, 72-h IC50 ratio
[5] = MCF7 versus FDH, 72-h IC50 ratio
[6] = MCF7 versus MRC-5, 72-h IC50 ratio
[7] = MM200 versus FDH, 72-h IC50 ratio
[8] = MM200 versus MRC-5, 72-h IC50 ratio
[9] = SK-MEL-147, 72 h, SK-MEL-147, 72 h treatment, MTT
[10] = SK-MEL-147, SK-MEL-147, 24h treatment, 1h pre-treated with 30 nM bafilomycin A1
[11] = SK-MEL-147, SK-MEL-147, 24h treatment, 1h pre-treated with 20 µM Z-VAD-FMK
[12] = SK-MEL-147, SK-MEL-147, 24h treatment, no pre-treatment (Table S4)
[13] = SK-MEL-147 versus FDH, 72-h IC50 ratio
[14] = SK-MEL-147 versus MRC-5, 72-h IC50 ratio
[15] = SK-MEL-19 versus FDH, 72-h IC50 ratio
[16] = SK-MEL-19 versus MRC-5, 72-h IC50 ratio
[17] = SK-MEL-28, 72 h, SK-MEL-28, 72 h treatment, MTT
[18] = SK-MEL-28, SK-MEL-28, 24h treatment, 1h pre-treated with 30 nM bafilomycin A1
[19] = SK-MEL-28, SK-MEL-28, 24h treatment, 1h pre-treated with 20 µM Z-VAD-FMK
[20] = SK-MEL-28, SK-MEL-28, 24h treatment, no pre-treatment (Table S4)
[21] = SK-MEL-28 versus FDH, 72-h IC50 ratio
[22] = SK-MEL-28 versus MRC-5, 72-h IC50 ratio
[23] = WM293A versus FDH, 72-h IC50 ratio
[24] = WM293A versus MRC-5, 72-h IC50 ratio
[25] = MRC-5 non-tumor fibroblasts, 72 h treatment, MTT

Row | SMILES | IC50 (501mel) | IC50 (FDH) | Selectivity Index (SI) (HCT-116; [3]) | Selectivity Index (SI) (HCT-116; [4]) | IC50 (HCT-116) | IC50 (MCF7) | Selectivity Index (SI) (MCF7; [5]) | Selectivity Index (SI) (MCF7; [6]) | Selectivity Index (SI) (MM200; [7]) | Selectivity Index (SI) (MM200; [8]) | IC50 (SK-MEL-147; [9]) | Selectivity Index (SI) (SK-MEL-147; [13]) | Selectivity Index (SI) (SK-MEL-147; [14]) | IC50 (SK-MEL-19) | Selectivity Index (SI) (SK-MEL-19; [15]) | Selectivity Index (SI) (SK-MEL-19; [16]) | IC50 (SK-MEL-28; [17]) | Selectivity Index (SI) (SK-MEL-28; [21]) | Selectivity Index (SI) (SK-MEL-28; [22]) | IC50 (WM293A) | further results
1 | COc1cccc2c1C(=O)c1c(O)c3c(c(O)c1C2=O)C[C@@](O)(C(=O)CO)C[C@@H]3O[C@H]1C[C@H](N)[C@H](O)[C@H](C)O1 [DOX, doxorubicin, reference compound] | 260 nM | 780 nM | 5.2 | 0.3 | 150 nM | 560 nM | 1.4 | 0.1 | 7.8 | 0.5 | 180 nM | 4.3 | 0.3 | 390 nM | 2.0 | 0.1 | 1220 nM | 0.6 | 0.04 | 60 nM | Selectivity Index (SI) (501mel; [1]): 3.0; Selectivity Index (SI) (501mel; [2]): 0.2; IC50 (MM200): 100 nM; IC50 (SK-MEL-147; SK-MEL-147, 24 h, SK-MEL-147, 24h treatment, MTT): 790 nM; IC50 (SK-MEL-147; SK-MEL-147, 48 h, SK-MEL-147, 48h treatment, MTT): 480 nM; IC50 (SK-MEL-147; [10]): 2480 nM; IC50 (SK-MEL-147; [11]): 1880 nM; IC50 (SK-MEL-147; [12]): 800 nM; IC50 (SK-MEL-28; SK-MEL-28, 24 h, SK-MEL-28, 24h treatment, MTT): 1390 nM; IC50 (SK-MEL-28; SK-MEL-28, 48 h, SK-MEL-28, 48h treatment, MTT): 2110 nM; IC50 (SK-MEL-28; [18]): 330 nM; IC50 (SK-MEL-28; [19]): 1150 nM; IC50 (SK-MEL-28; [20]): 590 nM; Selectivity Index (SI) (WM293A; [23]): 13.0; Selectivity Index (SI) (WM293A; [24]): 0.9; IC50 (MRC-5): 50 nM
2 | CO[C@H]1C[C@@H]2CC[C@@H](C)[C@@](O)(O2)C(=O)C(=O)N2CCCC[C@H]2C(=O)O[C@H]([C@H](C)C[C@@H]2CC[C@@H](O)[C@H](OC)C2)CC(=O)[C@H](C)/C=C(\C)[C@@H](O)[C@@H](OC)C(=O)[C@H](C)C[C@H](C)/C=C/C=C/C=C/1C [RAPAMYCIN, rapamycin, reference compound] | – | – | – | – | – | – | – | – | – | – | – | – | – | – | – | – | – | – | – | – | IC50 (SK-MEL-147; [10]): 39100 nM; IC50 (SK-MEL-147; [11]): 22800 nM; IC50 (SK-MEL-147; [12]): 17500 nM; IC50 (SK-MEL-28; [18]): 15600 nM; IC50 (SK-MEL-28; [19]): 31800 nM; IC50 (SK-MEL-28; [20]): 17800 nM
3 | O=C(O)CCc1ccc2c(=O)c3sc4c(=O)c5ccccc5c(=O)c4c3c(=O)c2c1 [SQ3] | 200 nM | 3500 nM | 3.4 | 1.4 | 1020 nM | 1900 nM | 1.8 | 0.8 | 2.4 | 1.0 | 260 nM | 13.5 | 5.5 | 110 nM | 31.8 | 13.0 | 240 nM | 14.6 | 6.0 | 1500 nM | Selectivity Index (SI) (501mel; [1]): 17.5; Selectivity Index (SI) (501mel; [2]): 7.2; IC50 (MM200; 72 h): 1430 nM; Selectivity Index (SI) (WM293A; [23]): 2.3; Selectivity Index (SI) (WM293A; [24]): 1.0; selectivity indices to SK-Mel cells in relation to non-tumor cell lines (melanoma cells): ≥ twofold; IC50 (MRC-5; [25]): 1430 nM
4 | NCCCCCCNC(=O)CCc1ccc2c(=O)c3sc4c(=O)c5ccccc5c(=O)c4c3c(=O)c2c1 [SQ4] | > 5000 nM | 1010 nM | 1.0 | 2.4 | 1020 nM | 1000 nM | 1.0 | 2.5 | 0.9 | 2.1 | 400 nM | 2.5 | 6.1 | 320 nM | 3.2 | 7.7 | 190 nM | 5.3 | 12.9 | 1750 nM | IC50 (MM200; 72 h): 1160 nM; Selectivity Index (SI) (WM293A; [23]): 0.6; Selectivity Index (SI) (WM293A; [24]): 1.4; selectivity indices to SK-Mel cells in relation to non-tumor cell lines (melanoma cells): ≥ twofold; IC50 (MRC-5; [25]): 2450 nM
5 | N[C@H]1CCN(C(=O)CCc2ccc3c(=O)c4sc5c(=O)c6ccccc6c(=O)c5c4c(=O)c3c2)C1 [SQ5] | 1710 nM | 930 nM | 4.2 | 2.5 | 220 nM | 490 nM | 1.9 | 1.1 | 3.1 | 1.9 | 70 nM | 13.3 | 8.0 | 40 nM | 23.3 | 14.0 | 150 nM | 6.2 | 3.7 | 1650 nM | Selectivity Index (SI) (501mel; [1]): 0.5; Selectivity Index (SI) (501mel; [2]): 0.3; IC50 (MM200; 72 h): 300 nM; Selectivity Index (SI) (WM293A; [23]): 0.6; Selectivity Index (SI) (WM293A; [24]): 0.3; selectivity indices to SK-Mel cells in relation to non-tumor cell lines (melanoma cells): ≥ twofold; IC50 (MRC-5; [25]): 560 nM
